Results taken from patent US8426447B2, “Spiro-tricyclic ring compounds as beta-secretase modulators and methods of use” (Amgen Inc., priority 2008, dated 2013).

Legend:
[1] = molecular target: T1, BACE1 (Homo sapiens, UniProt P56817); assay: In Vitro Enzymatic BACE FRET (Fluorescence Resonance Energy Transfer) Assay; type: biochemical; settings: read-out: BACE1 FRET assay
Method in brief: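 One-hour incubation initiated by 50 nM quenched FRET peptide spanning the BACE cleavage site, in 0.05 M acetate (pH 4.2), 100 uM genapol, 10% DMSO final. Tris addition neutralizes pH to end the reaction before fluorescence measurement.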

[2] = molecular target: T1, BACE1; assay: In Vitro BACE Cell-based Assay (HEK cell assay): Aβ40 in conditioned medium of cells stably expressing Amyloid Precursor Protein, sandwich ELISA; settings: read-out: HEK cell assay
Method in brief: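 Read-out is time-resolved fluorescence of Aβ40 in supernatant, captured by pAb40 and detected with biotinylated 6E10 plus Streptavidin-Europium. Cells stably expressing APP received compounds for 24 h over 10 concentrations starting at 100 μM or 10 μM, final DMSO 0.1%.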

[3] = in vitro BACE FRET enzyme assay, IC50 class symbols
[4] = HEK cell-based assay, Aβ40 in conditioned medium, IC50 class symbols

T1 sequence (P56817 46-501, species assumed): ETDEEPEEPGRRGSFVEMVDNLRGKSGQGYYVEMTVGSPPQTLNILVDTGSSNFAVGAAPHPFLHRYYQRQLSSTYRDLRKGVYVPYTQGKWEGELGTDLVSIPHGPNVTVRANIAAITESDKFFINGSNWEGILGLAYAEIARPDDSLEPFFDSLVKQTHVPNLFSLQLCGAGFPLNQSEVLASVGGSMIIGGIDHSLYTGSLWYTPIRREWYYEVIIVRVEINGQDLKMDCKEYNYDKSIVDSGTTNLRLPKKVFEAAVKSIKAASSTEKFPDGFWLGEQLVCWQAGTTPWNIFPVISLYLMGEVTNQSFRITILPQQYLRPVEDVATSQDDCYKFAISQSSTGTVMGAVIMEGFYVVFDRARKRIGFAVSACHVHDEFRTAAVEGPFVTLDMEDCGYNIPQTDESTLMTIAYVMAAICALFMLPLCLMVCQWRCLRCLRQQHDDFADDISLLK

NC1=N[C@@]2(CO1)c1cc(-c3cccnc3)ccc1Oc1cnc(N)cc12 [compound 446]
IC50 [1]: 0.1 to 1 µM
IC50 ([2]; HEK cells): 0.1 to 1 µM

NC1=N[C@@]2(CO1)c1cc(-c3cccnc3)ccc1Oc1ccc(N3C[C@@H]4C[C@H]3CO4)cc12 [compound 564]
IC50 ([1]; Table IV, class symbols): < 0.1 µM
IC50 ([2]; Table IV, class symbols): < 0.1 µM

COc1ccc(-c2ccc3c(c2)[C@]2(COC(N)=N2)c2cc(-c4cncnc4)ccc2O3)cc1 [compound 892]
IC50 ([1]; Table IV, class symbols): < 0.1 µM
IC50 ([2]; Table IV, class symbols): < 0.1 µM

CC(C)(O)COc1ccc2c(c1)[C@]1(COC(N)=N1)c1cc(-c3ccc(F)nc3)ccc1O2 [compound 222]
IC50 ([1]; Table III, IC50's in uM ranges): < 0.1 µM
IC50 ([2]; Table III, IC50's in uM ranges): < 0.1 µM

CC(C)(C)COc1ccc2c(n1)[C@@]1(COC(N)=N1)c1cc(Br)ccc1O2 [compound 734]
IC50 [1]: > 5 µM
IC50 [2]: > 5 µM

CC(C)(C)COc1ccc2c(c1)[C@]1(COC(N)=N1)c1cc(-c3ccc(F)nc3)cnc1O2 [compound 869]
IC50 ([1]; Table IV, class symbols): 0.1 to 1 µM
IC50 ([2]; Table IV, class symbols): 1 to 5 µM

CC(C)C[C@@H]1CN(c2ccc3c(c2)[C@]2(COC(N)=N2)c2cc(-c4cccnc4)ccc2O3)CCO1 [compound 360]
IC50 [1, 3]: 0.1 to 1 µM
IC50 [2, 4]: 0.1 to 1 µM

COC(C)(C)C#Cc1ccc2c(c1)[C@@]1(COC(N)=N1)c1cc(C#CC(C)(C)OC)cnc1O2 [compound 934]
IC50 [1]: < 0.1 µM
IC50 [2]: < 0.1 µM

CC(=O)c1cccc(-c2ccc3c(c2)[C@@]2(COC(N)=N2)c2cc(OCC(C)(C)C)ccc2O3)c1 [compound 973]
IC50 [1]: 0.1 to 1 µM
IC50 [2]: 1 to 5 µM

CC(C)(O)C#Cc1cnc2c(c1)[C@@]1(COC(N)=N1)c1cc(-c3ccccc3)ccc1O2 [compound 709]
IC50 [1]: 1 to 5 µM
IC50 [2]: > 5 µM

NC1=N[C@]2(CO1)c1cc(-c3cccnc3)ccc1Oc1cnc(Cl)cc12 [compound 953]
IC50 [1]: 0.1 to 1 µM
IC50 [2]: 1 to 5 µM

COc1ncc(-c2ccc3c(c2)[C@@]2(COC(N)=N2)c2cc(OCC(C)(C)C)ccc2O3)cn1 [compound 977]
IC50 [1]: 0.1 to 1 µM
IC50 [2]: 1 to 5 µM

CC1(COc2ccc3c(c2)[C@]2(COC(N)=N2)c2cc(-c4cncnc4)cnc2O3)COC1 [compound 166]
IC50 ([1]; Table III, IC50's in uM ranges): < 0.1 µM
IC50 ([2]; Table III, IC50's in uM ranges): 0.1 to 1 µM

CC(C)(C)COc1cnc2c(c1)[C@]1(COC(N)=N1)c1cc(Br)ccc1O2 [compound 388]
IC50 [1, 3]: 0.1 to 1 µM
IC50 [2, 4]: 1 to 5 µM

C[C@@H]1CN(c2cc(F)c3c(c2)[C@]2(COC(N)=N2)c2cc(-c4cncnc4)ccc2O3)C[C@H](C)O1 [compound 501]
IC50 [1]: < 0.1 µM
IC50 ([2]; HEK cells): < 0.1 µM

CC(C)(C)C#Cc1cnc2c(c1)[C@]1(COC(N)=N1)c1cc(-c3cncnc3)cc(F)c1O2 [compound 537]
IC50 ([1]; Table IV, class symbols): < 0.1 µM
IC50 ([2]; Table IV, class symbols): 0.1 to 1 µM

COC(C)(C)COc1ccc2c(c1)[C@]1(COC(N)=N1)c1cc(-c3cccnc3)ccc1O2 [compound 149]
IC50 ([1]; Table III, IC50's in uM ranges): < 0.1 µM
IC50 ([2]; Table III, IC50's in uM ranges): < 0.1 µM

NC1=N[C@]2(CO1)c1cc(-c3cccnc3)ccc1Oc1c(F)cc(C3=CCOCC3)cc12 [compound 644]
IC50 ([1]; Table IV, class symbols): 0.1 to 1 µM
IC50 ([2]; Table IV, class symbols): 1 to 5 µM

CC1(COc2ccc3c(c2)[C@]2(COC(N)=N2)c2cc(C#CC4CC4)ccc2O3)COC1 [compound 197]
IC50 ([1]; Table III, IC50's in uM ranges): < 0.1 µM
IC50 ([2]; Table III, IC50's in uM ranges): < 0.1 µM

CC(C)(C)COc1ccc2c(c1)[C@@]1(COC(N)=N1)c1cc(-c3ccc(OCC(F)(F)F)nc3)cnc1O2 [compound 740]
IC50 [1]: < 0.1 µM
IC50 [2]: < 0.1 µM

CC(C)(C)C[C@@H](F)c1ccc2c(c1)[C@]1(COC(N)=N1)c1cc(-c3cncnc3)ccc1O2 [116b, (4S)-2′-((1R)-1-fluoro-3,3-dimethylbutyl)-7′-(5-pyrimidinyl)spiro[1,3-oxazole-4,9′-xanthen]-2-amine]
IC50 ([1]; Table III, IC50's in uM ranges): < 0.1 µM
IC50 ([2]; Table III, IC50's in uM ranges): 0.1 to 1 µM

NC1=N[C@@]2(CO1)c1cc(-c3cccnc3N3CCOCC3)ccc1Oc1ccc(N3CCOCC3)cc12 [compound 391]
IC50 [1, 3]: 0.1 to 1 µM
IC50 [2, 4]: 1 to 5 µM

CC(C)(F)COc1ccc2c(c1)[C@]1(COC(N)=N1)c1cc(-c3cccnc3)cnc1O2 [compound 177]
IC50 ([1]; Table III, IC50's in uM ranges): < 0.1 µM
IC50 ([2]; Table III, IC50's in uM ranges): < 0.1 µM

NC1=N[C@]2(CO1)c1cc(C(=O)CC3CCCCC3)ccc1Oc1ccc(-c3cncnc3)cc12 [compound 141]
IC50 ([1]; Table III, IC50's in uM ranges): < 0.1 µM
IC50 ([2]; Table III, IC50's in uM ranges): 0.1 to 1 µM

NC1=N[C@]2(CO1)c1cc(C#CCCO)ccc1Oc1ccc(-c3cccnc3)cc12 [compound 183]
IC50 ([1]; Table III, IC50's in uM ranges): < 0.1 µM
IC50 ([2]; Table III, IC50's in uM ranges): < 0.1 µM

COc1ccc(-c2ccc3c(c2)[C@@]2(COC(N)=N2)c2cc(OCC(C)(C)C)ccc2O3)c(OC)n1 [compound 909]
IC50 ([1]; Table IV, class symbols): 0.1 to 1 µM
IC50 ([2]; Table IV, class symbols): > 5 µM

Cc1ccc2c(c1)Oc1ccc(-c3cccc(OC(F)(F)F)c3)cc1[C@]21COC(N)=N1 [Example 24, (4S)-6′-methyl-2′-(3-(trifluoromethoxy)phenyl)spiro[1,3-oxazole-4,9′-xanthen]-2-amine]
IC50 ([1]; Table 1): > 5 µM
IC50 ([2]; Table 1, Aβ40, 24 h incubation): 1 to 5 µM

COC(C)(C)C#Cc1cnc2c(c1)[C@]1(COC(N)=N1)c1cc(-c3cccnc3)ccc1O2 [compound 603]
IC50 ([1]; Table IV, class symbols): < 0.1 µM
IC50 ([2]; Table IV, class symbols): < 0.1 µM

CC(C)(C)COc1ccc2c(c1)[C@]1(COC(N)=N1)c1cc(-c3ccsc3)ccc1O2 [compound 833]
IC50 ([1]; Table IV, class symbols): < 0.1 µM
IC50 ([2]; Table IV, class symbols): 1 to 5 µM

CC(C)(C)COc1ccc2c(c1)[C@]1(COC(N)=N1)c1cc(C(=O)N3CCCCC3)ccc1O2 [compound 873]
IC50 ([1]; Table IV, class symbols): 0.1 to 1 µM
IC50 ([2]; Table IV, class symbols): 0.1 to 1 µM

COc1ccc2c(c1)[C@@]1(COC(N)=N1)c1c(ccc(-c3cncnc3)c1F)O2 [compound 816]
IC50 ([1]; Table IV, class symbols): > 5 µM
IC50 ([2]; Table IV, class symbols): > 5 µM

N#Cc1ccc(-n2ccc3c(c2=O)[C@@]2(COC(N)=N2)c2cc(-c4cccnc4)ccc2O3)cc1 [compound 523]
IC50 [1]: 1 to 5 µM
IC50 ([2]; HEK cells): 1 to 5 µM

CC(C)(C)/C=C/c1cc2c(cn1)Oc1ccc(-c3cccnc3)cc1[C@@]21COC(N)=N1 [compound 397]
IC50 [1, 3]: < 0.1 µM
IC50 [2, 4]: < 0.1 µM

Cn1ccc2cc(-c3ccc4c(c3)[C@@]3(COC(N)=N3)c3cc(OCC(C)(C)C)ccc3O4)ccc21 [compound 914]
IC50 ([1]; Table IV, class symbols): 0.1 to 1 µM
IC50 ([2]; Table IV, class symbols): > 5 µM

CC(=O)c1cccc(-c2ccc3c(c2)[C@]2(COC(N)=N2)c2cc(-c4cncnc4)ccc2O3)c1 [compound 889]
IC50 ([1]; Table IV, class symbols): < 0.1 µM
IC50 ([2]; Table IV, class symbols): < 0.1 µM

NC1=N[C@@]2(CO1)c1cc(-c3cccnc3)ccc1Oc1cnc(C3CCOCC3)cc12 [compound 801]
IC50 ([1]; Table IV, class symbols): < 0.1 µM
IC50 ([2]; Table IV, class symbols): < 0.1 µM

CC(=O)COc1ccc2c(c1)[C@]1(COC(N)=N1)c1cc(C#CC3CC3)ccc1O2 [compound 200]
IC50 ([1]; Table III, IC50's in uM ranges): 0.1 to 1 µM
IC50 ([2]; Table III, IC50's in uM ranges): 0.1 to 1 µM

CC(C)(O)COc1ccc2c(c1C#N)[C@]1(COC(N)=N1)c1cc(-c3cccnc3)ccc1O2 [compound 929]
IC50 [1]: < 0.1 µM
IC50 [2]: 0.1 to 1 µM

NC1=N[C@]2(CO1)c1cc(C3=CCNCC3)ccc1Oc1ccc(-c3cncnc3)cc12 [compound 964]
IC50 [1]: < 0.1 µM
IC50 [2]: < 0.1 µM

COC(=O)CN1CCN(c2cc3c(cn2)Oc2ccc(-c4cccnc4)cc2[C@@]32COC(N)=N2)CC1 [compound 438]
IC50 [1]: < 0.1 µM
IC50 ([2]; HEK cells): < 0.1 µM

NC1=N[C@@]2(CO1)c1cc(-c3cccnc3F)ccc1Oc1ccc(-c3ccnc(F)c3)nc12 [compound 399]
IC50 [1, 3]: < 0.1 µM
IC50 [2, 4]: 0.1 to 1 µM

COc1ccc2c(c1)[C@]1(COC(N)=N1)c1cc(C#CC(C)(C)OC)cnc1O2 [compound 901]
IC50 ([1]; Table IV, class symbols): 1 to 5 µM
IC50 ([2]; Table IV, class symbols): > 5 µM

CC(C)(C)COc1ccc2c(c1)[C@@]1(COC(N)=N1)c1cc(C(=O)N3CCCC3)ccc1O2 [218a]
IC50 ([1]; Table III, IC50's in uM ranges): 0.1 to 1 µM
IC50 ([2]; Table III, IC50's in uM ranges): 1 to 5 µM

CC(C)(C)COc1ccc2c(c1)[C@]1(COC(N)=N1)c1cc(-c3cncnc3)cc(F)c1O2 [155b]
IC50 ([1]; Table III, IC50's in uM ranges): < 0.1 µM
IC50 ([2]; Table III, IC50's in uM ranges): 0.1 to 1 µM

CC1CCN(c2cc3c(cn2)Oc2ccc(-c4cccnc4)cc2[C@@]32COC(N)=N2)CC1 [compound 441]
IC50 [1]: < 0.1 µM
IC50 ([2]; HEK cells): < 0.1 µM

N#Cc1cccc(-c2ccc3c(c2)[C@]2(COC(N)=N2)c2cc(-c4cccnc4)ccc2O3)c1 [compound 961]
IC50 [1]: < 0.1 µM
IC50 [2]: < 0.1 µM

COc1ccc2c(c1)[C@@]1(N=C(N)O[C@@H]1C)c1cc(-c3cncnc3)ccc1O2 (single isomer, unassigned) [Example 125d]
IC50 ([1]; Table III, IC50's in uM ranges): 0.1 to 1 µM
IC50 ([2]; Table III, IC50's in uM ranges): 0.1 to 1 µM

COc1ccc(-c2ccc3c(c2)[C@]2(COC(N)=N2)c2cc(-c4cncnc4)ccc2O3)cn1 [compound 829]
IC50 ([1]; Table IV, class symbols): < 0.1 µM
IC50 ([2]; Table IV, class symbols): < 0.1 µM
